Results: PubChem BioAssay (NCI)
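GI50 = concentration required for 50% inhibition of growth. Definition used: TGI = concentration required for complete inhibition of growth.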

How the values were obtained:
Assay in all cases: NCI tumour cell line growth inhibition, 384-well format
[1] = test system: SK-MEL-5 melanoma
[2] = test system: NCI-H226 lung
[3] = test system: RXF 393 renal
[4] = test system: ACHN renal
[5] = test system: SK-OV-3 ovarian
[6] = test system: MCF7 breast
[7] = test system: OVCAR-3 ovarian
[8] = test system: SK-MEL-2 melanoma
[9] = test system: SNB-19 CNS
[10] = test system: IGROV1 ovarian
[11] = test system: COLO 205 colon
[12] = test system: SF-295 CNS
[13] = test system: KM12 colon
[14] = test system: MOLT-4 leukemia
[15] = test system: NCI-H522 lung
[16] = test system: SN12C renal
[17] = test system: HOP-92 NSCLC
[18] = test system: MDA-MB-435 melanoma
[19] = test system: M14 melanoma
[20] = test system: NCI-H460 NSCLC
[21] = test system: SR leukemia
[22] = test system: NCI/ADR-RES ovarian
[23] = test system: OVCAR-5 ovarian
[24] = test system: PC-3 prostate
[25] = test system: A498 renal
[26] = test system: RPMI-8226 leukemia
[27] = test system: HOP-62 NSCLC
[28] = test system: BT-549 breast
[29] = test system: UACC-257 melanoma
[30] = test system: SF-539 CNS
[31] = test system: DU-145 prostate
[32] = test system: K-562 leukemia
[33] = test system: T-47D breast
[34] = test system: SNB-75 CNS
[35] = test system: OVCAR-8 ovarian
[36] = test system: SW-620 colon
[37] = test system: HCC-2998 colon
[38] = test system: MDA-MB-468 breast
[39] = test system: 786-0 renal
[40] = test system: OVCAR-4 ovarian
[41] = test system: A549 NSCLC
[42] = test system: HCT-15 colon
[43] = test system: HL-60(TB) leukemia
[44] = test system: CCRF-CEM leukemia
[45] = test system: NCI-H322M lung
[46] = test system: UACC-62 melanoma
[47] = test system: CAKI-1 renal
[48] = test system: NCI-H23 lung
[49] = test system: SF-268 CNS
[50] = test system: MDA-MB-231 breast
[51] = test system: HT29 colon
[52] = test system: U251 glioblastoma
[53] = test system: UO-31 renal
[54] = test system: MALME-3M melanoma
[55] = test system: TK-10 renal
[56] = test system: LOX IMVI melanoma
[57] = test system: HCT-116 colon
[58] = test system: SK-MEL-28 melanoma
[59] = test system: EKVX NSCLC

`CC#C/C(=N\OC[C@H]1COCCN1)c1ccc2ncnc(Nc3ccc(OCc4cccc(F)c4)c(Cl)c3)c2c1` showed a GI50 [1] of 1510 nM, a TGI [1] of 2850 nM and a GI50 [2] of 1800 nM. It also gave a TGI [2] of 3380 nM, a GI50 [3] of 864 nM and a TGI [3] of 2260 nM. The GI50 [4] was 523 nM, the TGI [4] was 1990 nM and the GI50 [5] was 246 nM. The TGI [5] was 3420 nM, the GI50 [6] was 1500 nM and the TGI [6] was 2850 nM. The GI50 [7] was 1190 nM, the TGI [7] was 2440 nM and the GI50 [8] was 1310 nM. For the same molecule, the TGI [8] was 2580 nM, the GI50 [9] was 1670 nM and the TGI [9] was 3040 nM. The GI50 [10] was 261 nM, the TGI [10] was 1870 nM and the GI50 [11] was 1960 nM. For the same molecule, the TGI [11] was 3380 nM, the GI50 [12] was 1820 nM and the TGI [12] was 3220 nM. The GI50 [13] was 1760 nM, the TGI [13] was 3160 nM and the GI50 [14] was 1440 nM. It also gave a TGI [14] of 2760 nM, a GI50 [15] of 48.2 nM and a TGI [15] of 1290 nM. It also gave a GI50 [16] of 1280 nM, a TGI [16] of 2550 nM and a GI50 [17] of 981 nM. For the same molecule, the TGI [17] was 2180 nM, the GI50 [18] was 1890 nM and the TGI [18] was 3310 nM. For the same molecule, the GI50 [19] was 1950 nM, the TGI [19] was 3370 nM and the GI50 [20] was 1750 nM. It also gave a TGI [20] of 3180 nM, a GI50 [21] of 393 nM and a TGI [21] of 1230 nM. The GI50 [22] was 1490 nM, the TGI [22] was 4020 nM and the GI50 [23] was 1800 nM. It also gave a TGI [23] of 3590 nM, a GI50 [24] of 1780 nM and a TGI [24] of 3200 nM. It also gave a GI50 [25] of 1130 nM, a TGI [25] of 2340 nM and a GI50 [26] of 959 nM. The TGI [26] was 2420 nM, the GI50 [27] was 1620 nM and the TGI [27] was 2980 nM. The GI50 [28] was 1510 nM, the TGI [28] was 2850 nM and the GI50 [29] was 1520 nM. The TGI [29] was 2850 nM, the GI50 [30] was 1590 nM and the TGI [30] was 2950 nM. It also gave a GI50 [31] of 1160 nM, a TGI [31] of 2420 nM and a GI50 [32] of 1700 nM. For the same molecule, the TGI [32] was 3090 nM, the GI50 [33] was 1020 nM and the TGI [33] was 2410 nM. It also gave a GI50 [34] of 1870 nM, a TGI [34] of 3270 nM and a GI50 [35] of 1370 nM. For the same molecule, the TGI [35] was 2670 nM, the GI50 [36] was 1880 nM and the TGI [36] was 3300 nM. For the same molecule, the GI50 [37] was 1540 nM, the TGI [37] was 2890 nM and the GI50 [38] was 55.7 nM. The TGI [38] was 368 nM, the GI50 [39] was 1310 nM and the TGI [39] was 2600 nM. The GI50 [40] was 1280 nM, the TGI [40] was 2550 nM and the GI50 [41] was 1170 nM. For the same molecule, the TGI [41] was 2420 nM, the GI50 [42] was 1670 nM and the TGI [42] was 3050 nM. The GI50 [43] was 2230 nM, the TGI [43] was 3690 nM and the GI50 [44] was 1500 nM. For the same molecule, the TGI [44] was 2840 nM, the GI50 [45] was 102 nM and the TGI [45] was 1230 nM. The GI50 [46] was 1650 nM, the TGI [46] was 3020 nM and the GI50 [47] was 1120 nM. For the same molecule, the TGI [47] was 2340 nM, the GI50 [48] was 2020 nM and the TGI [48] was 3980 nM. It also gave a GI50 [49] of 1620 nM, a TGI [49] of 3000 nM and a GI50 [50] of 1730 nM. It also gave a TGI [50] of 3110 nM, a GI50 [51] of 1650 nM and a TGI [51] of 3040 nM. For the same molecule, the GI50 [52] was 1880 nM, the TGI [52] was 3310 nM and the GI50 [53] was 1520 nM. The TGI [53] was 2860 nM, the GI50 [54] was 1760 nM and the TGI [54] was 3150 nM. It also gave a GI50 [55] of 404 nM, a TGI [55] of 1880 nM and a GI50 [56] of 1910 nM. For the same molecule, the TGI [56] was 3330 nM, the GI50 [57] was 1660 nM and the TGI [57] was 3050 nM. It also gave a GI50 [58] of 1770 nM, a TGI [58] of 3160 nM and a GI50 [59] of 1270 nM. The TGI [59] was 2540 nM.
